Measurements: US20220362396A1, “AMINO-PYRAZINECARBOXAMIDE COMPOUNDS, CONJUGATES, AND USES THEREOF” (Silverback Therapeutics, Inc., priority 2018, published 2022)

Legend:
[1] = system: TGFβ/SMAD Signaling Pathway SBE reporter cell line; assay: TGFβ reporter assay, in vitro small molecule screening (luciferase); assay type: cell-based; settings: TGFβ stimulation, luminescence
Method in brief: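 SBE luciferase reporter cells (~0.5×10^6 cells/mL) preincubated with compound 5-6 h at 37 °C in 0.5% FBS MEM, then stimulated with TGFβ (12 ng/mL stock) for 18 h. Luminescence read after luciferase substrate; EC50 from curve fits.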

[2] = biological target: T1, TGFBR2 (Homo sapiens, UniProt P37173); assay: TGFBR2 RBC assay (enzyme inhibition assay, Reaction Biology Corp.); assay type: biochemical
T1 construct: purchased Reaction Biology Corp
Method: Compounds of the disclosure were also assayed by Reaction Biology Corp. using the TGFBR2 RBC assay (enzyme inhibition assay). […] NT refers to not tested.

T1 sequence (P37173 23-567): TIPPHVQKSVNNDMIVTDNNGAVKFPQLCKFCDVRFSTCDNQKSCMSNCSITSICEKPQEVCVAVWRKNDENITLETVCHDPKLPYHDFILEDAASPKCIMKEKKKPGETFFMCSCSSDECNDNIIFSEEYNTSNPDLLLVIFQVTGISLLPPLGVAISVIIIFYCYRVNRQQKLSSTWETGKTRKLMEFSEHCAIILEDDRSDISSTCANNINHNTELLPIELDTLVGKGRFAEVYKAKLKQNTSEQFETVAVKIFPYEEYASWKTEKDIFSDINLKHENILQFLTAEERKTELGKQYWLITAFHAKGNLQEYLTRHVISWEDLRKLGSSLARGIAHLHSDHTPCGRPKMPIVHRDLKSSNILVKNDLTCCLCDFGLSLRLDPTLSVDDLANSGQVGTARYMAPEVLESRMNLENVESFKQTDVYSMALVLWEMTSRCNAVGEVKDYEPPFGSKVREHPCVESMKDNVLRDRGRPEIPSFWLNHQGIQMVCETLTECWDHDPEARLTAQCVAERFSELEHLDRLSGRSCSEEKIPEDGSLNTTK

| Structure (SMILES) | EC50 [1] [nM] | IC50 [2] [nM] |
| --- | --- | --- |
| COc1cnccc1-c1ccncc1NC(=O)c1nc(-c2ccc(CCNC(=O)OCc3ccccc3)cc2)cnc1N [Compound 33] | 100 to 1000 | > 1000 |
| [N-]=[N+]=NCC1COCCN1c1ccncc1NC(=O)c1nc(-c2ccc(CCNC(=O)OCc3ccccc3)cc2)cnc1N (stereo not drawn) [Compound 27] | > 1000 | > 1000 |
| Nc1ncc(-c2ccc(CCNC(=O)OCc3ccccc3)cc2)nc1C(=O)Nc1cnccc1-n1ccnn1 [Compound 120] | > 1000 | < 50 |
| NCCCc1ccc(-c2cnc(N)c(C(=O)Nc3cc(F)ccc3N3CCOCC3)n2)cc1 [Compound 66] | > 1000 | 100 to 1000 |
| Nc1ncc(-c2ccc(CCNC(=O)OCc3ccccc3)cc2)nc1C(=O)Nc1cnccc1N1CCCOC1=O [Compound 38] | 100 to 1000 | 100 to 1000 |
| COC(=O)c1cc(-c2cnc(NC(=O)OC(C)(C)C)c(C(=O)Nc3cnccc3N3CCOCC3)n2)ccc1OCCCNC(=O)OC(C)(C)C [Compound 242] | > 1000 | 50 to 100 |
| Cc1nccn1-c1ccncc1NC(=O)c1nc(-c2ccc(CCN)cc2)cnc1N [Compound 138] | > 1000 | < 50 |
| COC1CN(c2ccncc2NC(=O)c2nc(-c3ccc(CCN)cc3)cnc2N)C1 [Compound 98] | > 1000 | > 1000 |
| Nc1ncc(-c2ccc(CCCNC(=O)OCc3ccccc3)cc2)cc1C(=O)Nc1cnccc1N1CCOCC1 [Compound 79] | 100 to 1000 | > 1000 |
| Nc1ncc(-c2ccc(CCNC(=O)OCc3ccccc3)cc2)nc1C(=O)Nc1cnccc1-c1cc[nH]c(=O)c1 [Compound 39] | > 1000 | 100 to 1000 |
| COC1CN(c2ccncc2NC(=O)c2nc(-c3ccc(CCNC(=O)OCc4ccccc4)cc3)cnc2N)C1 [Compound 96] | > 1000 | > 1000 |
| Nc1ncc(-c2ccc(CC(=O)N3CCN(C(=O)OCc4ccccc4)CC3)cc2)nc1C(=O)Nc1cnccc1N1CCOCC1 [Compound 90] | 50 to 100 | < 50 |
| Nc1ncc(-c2ccc(CCNC(=O)OCc3ccccc3)cc2)nc1C(=O)Nc1cnccc1-c1ccccn1 [Compound 25] | 100 to 1000 | < 50 |
| CC(C)[C@H](N)C(=O)N[C@@H](C)C(=O)NCc1ccc(-c2cnc(N)c(C(=O)Nc3cnccc3N3CCOCC3)n2)cc1 [Compound 108] | 50 to 100 | 50 to 100 |
| C[C@H]1CN(c2ccncc2NC(=O)c2nc(-c3ccc(CCNC(=O)OCc4ccccc4)cc3)cnc2N)CCO1 [Compound 28] | 100 to 1000 | 100 to 1000 |
| Nc1ncc(-c2ccc(CCCCNC(=O)OCc3ccccc3)cc2)nc1C(=O)Nc1cnccc1N1CCOCC1 [Compound 74] | 100 to 1000 | 50 to 100 |
| Nc1ncc(-c2ccc(CCNC(=O)OCc3ccccc3)cc2)nc1C(=O)Nc1cnccc1-c1ccccc1 [Compound 121] | 100 to 1000 | < 50 |
| Nc1ncc(-c2ccc(S(=O)(=O)N3CCN(C(=O)OCc4ccccc4)CC3)cc2)nc1C(=O)Nc1cnccc1N1CCOCC1 [Compound 63] | 50 to 100 | 100 to 1000 |
| NCC1CN(c2ccncc2NC(=O)c2nc(-c3ccc(CCNC(=O)OCc4ccccc4)cc3)cnc2N)CCO1 (stereo not drawn) [Compound 30] | > 1000 | 100 to 1000 |
| N#Cc1ccccc1-c1ccncc1NC(=O)c1nc(-c2ccc(CCNC(=O)OCc3ccccc3)cc2)cnc1N [Compound 31] | > 1000 | > 1000 |
| Nc1ncc(-c2ccc(CCNC(=O)OCc3ccccc3)cc2)nc1C(=O)Nc1cnccc1-c1ccc2c(c1)OCO2 [Compound 26] | 100 to 1000 | < 50 |
| CC(C)[C@H](NC(=O)OC(C)(C)C)C(=O)N[C@@H](C)C(=O)NCc1ccc(-c2cnc(N)c(C(=O)Nc3cnccc3N3CCOCC3)n2)cc1 [Compound 107] | 100 to 1000 | < 50 |
| Nc1cc(-c2ccncc2NC(=O)c2nc(-c3ccc(CCNC(=O)OCc4ccccc4)cc3)cnc2N)ccn1 [Compound 40] | > 1000 | < 50 |
| Nc1ncc(-c2ccc(CCNC(=O)OCc3ccccc3)cc2)nc1C(=O)Nc1cnccc1-n1ccnc1 [Compound 137] | > 1000 | < 50 |
| NCCc1ccc(-c2cnc(N)c(C(=O)Nc3cnccc3-c3ccccn3)n2)cc1 [Compound 132] | 100 to 1000 | < 50 |
| NCCc1ccc(-c2cnc(N)c(C(=O)Nc3cncc(-c4ccccc4N)c3)n2)cc1 [Compound 148] | > 1000 | 100 to 1000 |

The remaining lines, values ahead:

| EC50 [1] [nM] | IC50 [2] [nM] | Structure (SMILES) |
| --- | --- | --- |
| 50 to 100 | < 50 | NCCOc1ccc(-c2cnc(N)c(C(=O)Nc3cnccc3N3CCOCC3)n2)cc1 [Compound 64] |
| 100 to 1000 | < 50 | CC(C)(C)OC(=O)N1CCC[C@H]1C(=O)NCc1ccc(-c2cnc(N)c(C(=O)Nc3cnccc3N3CCOCC3)n2)cc1 [Compound 109] |
| 50 to 100 | < 50 | Nc1ncc(-c2ccc3c(c2)CCCN3)nc1C(=O)Nc1cnccc1N1CCOCC1 [Compound 193] |
| 50 to 100 | < 50 | CN(CCN)c1ccc(-c2cnc(N)c(C(=O)Nc3cnccc3N3CCOCC3)n2)cc1 [Compound 272] |
| 50 to 100 | 50 to 100 | Nc1ncc(-c2ccc3c(c2)CCNC3)nc1C(=O)Nc1cnccc1N1CCOCC1 [Compound 77] |
| > 1000 | 100 to 1000 | Nc1ncc(-c2ccc(Cl)c(Cl)c2)nc1C(=O)Nc1cnccc1N1CCOCC1 [Compound 154] |
| 100 to 1000 | < 50 | CC(C)(C)OC(=O)N1CCN(c2ccc(-c3cnc(N)c(C(=O)Nc4cnccc4N4CCOCC4)n3)cc2)CC1 [Compound 71] |
| 50 to 100 | < 50 | CC1CCNc2ccc(-c3cnc(N)c(C(=O)Nc4cnccc4N4CCOCC4)n3)cc21 (stereo not drawn) [Compound 216] |
| 100 to 1000 | < 50 | CN(CCNC(=O)OC(C)(C)C)c1ccc(-c2cnc(N)c(C(=O)Nc3cnccc3N3CCOCC3)n2)cc1 [Compound 267] |
| > 1000 | > 1000 | Nc1ncc(N2CCNCC2)nc1C(=O)Nc1cnccc1N1CCOCC1 [Compound 118] |
| 100 to 1000 | < 50 | Nc1ncc(-c2ccc3ccccc3c2)nc1C(=O)Nc1cnccc1N1CCOCC1 [Compound 252] |
| 100 to 1000 | < 50 | NCCc1cccc(-c2cnc(N)c(C(=O)Nc3cnccc3N3CCOCC3)n2)c1 [Compound 181] |
| 100 to 1000 | < 50 | COC(=O)[C@H](N)CCOc1ccc(-c2cnc(N)c(C(=O)Nc3cnccc3N3CCOCC3)n2)cc1 [Compound 269] |
| 100 to 1000 | < 50 | COC(=O)[C@@H](N)CCOc1ccc(-c2cnc(N)c(C(=O)Nc3cnccc3N3CCOCC3)n2)cc1 [Compound 263] |
| 100 to 1000 | 50 to 100 | CC(CN)Oc1cccc(-c2cnc(N)c(C(=O)Nc3cnccc3N3CCOCC3)n2)c1 (stereo not drawn) [Compound 190] |
| 100 to 1000 | 50 to 100 | Nc1ncc(-c2ccccc2Cl)nc1C(=O)Nc1cnccc1N1CCOCC1 [Compound 151] |
| 100 to 1000 | < 50 | NCCOc1cccc(-c2cnc(N)c(C(=O)Nc3cnccc3N3CCOCC3)n2)c1 [Compound 184] |

| EC50 [1] [nM] | IC50 [2] [nM] | Structure (SMILES) |
| --- | --- | --- |
| 100 to 1000 | < 50 | CC(CNC(=O)OC(C)(C)C)Oc1ccc(-c2cnc(N)c(C(=O)Nc3cnccc3N3CCOCC3)n2)cc1 (stereo not drawn) [Compound 206] |
| 100 to 1000 | < 50 | Nc1ncc(-c2ccc(C[C@@H](N)CO)cc2)nc1C(=O)Nc1cnccc1N1CCOCC1 [Compound 202] |
| 50 to 100 | < 50 | Nc1ncc(-c2ccc(N3CC[C@@H](N)C3)cc2)nc1C(=O)Nc1cnccc1N1CCOCC1 [Compound 278] |
| 50 to 100 | 50 to 100 | Nc1ncc(-c2ccc(CN3CCNCC3)cc2)nc1C(=O)Nc1cnccc1N1CCOCC1 [Compound 91] |
| < 50 | < 50 | NCCc1ccc(-c2cnc(N)c(C(=O)Nc3cnccc3N3CCOCC3)n2)c(F)c1 [Compound 55] |
| > 1000 | < 50 | CC(COc1ccc(-c2cnc(N)c(C(=O)Nc3cnccc3N3CCOCC3)n2)cc1)NC(=O)OC(C)(C)C (stereo not drawn) [Compound 204] |
| 100 to 1000 | < 50 | CC(C)(C)OC(=O)N1CCc2ccc(-c3cnc(N)c(C(=O)Nc4cnccc4N4CCOCC4)n3)cc2C1 [Compound 68] |
| 100 to 1000 | < 50 | Nc1ncc(-c2ccc(N3CCCC3)cc2)nc1C(=O)Nc1cnccc1N1CCOCC1 [Compound 262] |
| 100 to 1000 | < 50 | CC(C)(C)OC(=O)N[C@H]1CCN(c2ccc(-c3cnc(N)c(C(=O)Nc4cnccc4N4CCOCC4)n3)cc2)C1 [Compound 273] |
| > 1000 | < 50 | Nc1ncc(-c2ccc(C[C@H](N)C(=O)O)cc2)nc1C(=O)Nc1cnccc1N1CCOCC1 [Compound 208] |
| 50 to 100 | < 50 | CCOC(=O)[C@@H]1CNC[C@H]1c1ccc(-c2cnc(N)c(C(=O)Nc3cnccc3N3CCOCC3)n2)cc1 [Compound 227] |
| 100 to 1000 | < 50 | Nc1ncc(-c2ccc3c(c2)CCC3)nc1C(=O)Nc1cnccc1N1CCOCC1 [Compound 185] |
| 100 to 1000 | 50 to 100 | CC(CN)Oc1ccc(-c2cnc(N)c(C(=O)Nc3cnccc3N3CCCOCC3)n2)cc1 (stereo not drawn) [Compound 256] |
| 100 to 1000 | < 50 | CC(C)(C)OC(=O)NC1Cc2ccc(-c3cnc(N)c(C(=O)Nc4cnccc4N4CCOCC4)n3)cc2C1 (stereo not drawn) [Compound 212] |
| 100 to 1000 | < 50 | Nc1ncc(-c2ccc3c(c2)CC(O)C3)nc1C(=O)Nc1cnccc1N1CCOCC1 (stereo not drawn) [Compound 248] |
| 50 to 100 | < 50 | Nc1ncc(-c2ccc(OC3CCNCC3)cc2)nc1C(=O)Nc1cnccc1N1CCOCC1 [Compound 167] |
| > 1000 | 100 to 1000 | Nc1ncc(-c2ccc(C[C@@H](N)C(=O)O)cc2)nc1C(=O)Nc1cnccc1N1CCOCC1 [Compound 197] |
